Reference: US20170283440A1, “CARM1 INHIBITORS AND USES THEREOF” (Epizyme, Inc., priority 2014, published 2017)

Experiments:
Human CARM1 (PRMT4) = biological target: T1, Human CARM1 (PRMT4) (Homo sapiens, UniProt Q86X55); assay: CARM1 enzyme assay on peptide substrate (3H-SAM Flashplate); assay type: biochemical; conditions: CARM1 0.25 nM, 3H-SAM 30 nM, peptide 250 nM; read-out: Biochem IC50
T1 construct: Flag-CARM1-His was eluted with 200 ug/ml FLAG peptide in buffer A; made in house; host or cells: HEK 293F cells infected with recombinant baculovirus (pFastBacMam)
From the text: S-adenosylmethionine (SAM), S-adenosylhomocysteine (SAH), bicine, Tween20, dimethylsulfoxide (DMSO), bovine skin gelatin (BSG), sodium butyrate and Tris(2-carboxyethyl)phosphine hydrochloride solution (TCEP) were purchased from Sigma-Aldrich at the highest level of purity possible. ^3H-SAM was purchase from American Radiolabeled Chemicals with a specific activity of 80 Ci/mmol. 384-well streptavidin Flashplates were purchased from PerkinElmer.
Peptide representative of human histone H3 residues 16-30 was synthesized with an N-terminal linker-affinity tag motif and a C-terminal amide cap by 21st Century Biochemicals. The peptide was purified by high-performance liquid chromatography (HPLC) to greater than 95% purity and confirmed by liquid chromatography mass spectrometry (LC-MS). The sequence was Biot-Ahx-[…]-amide and contained a monomethylated arginine at position 26 (SEQ ID NO.:1).
Human CARM1 (PRMT4) (NM_199141.1) transcript clone was amplified from an HEK 293 cDNA library, incorporating a flanking 5′ sequence encoding a FLAG tag ([…]) (SEQ ID NO.:2) fused directly to Ala 2 of CARM1 and 3′ sequence encoding a hexa His sequence ([…]) (SEQ ID NO.:3) fused directly to Ser 608. The gene sequence encoding isoform1 containing a deletion of amino acids 539-561 was amplified subsequently and subcloned into pFastBacMam (Viva Biotech).
Recombinant baculovirus were generated according to Bac-to-Bac kit instructions (Life Technologies). Protein over-expression was accomplished by infecting exponentially growing HEK 293F cell culture at 1.3×10^6 cell/ml with virus (MOI=10) in the presence of 8 mM sodium butyrate. Infections were carried out at 37° C. for 48 hours, harvested by centrifugation, and stored at −80° C. for purification.
Column was washed with 500 mM NaCl in buffer A and Flag-CARM1-His was eluted with 200 ug/ml FLAG peptide in buffer A. Pooled fractions were dialyzed in 20 mM Tris, 150 mM NaCl, 5% glycerol and 1 mM DTT, pH 7.8. The purity of recovered protein was 94.
The assays were all performed in a buffer consisting of 20 mM Bicine (pH=7.6), 1 mM TCEP, 0.005% BSG, and 0.002% Tween 20, prepared on the day of use. Compounds in 100% DMSO (1 ul) were spotted into a polypropylene 384-well V-bottom plates (Greiner) using a Platemate Plus outfitted with a 384-channel head (Thermo Scientific). DMSO (1 ul) was added to Columns 11, 12, 23, 24, rows A-H for the maximum signal control and 1 ul of SAH, a known product and inhibitor of CARM1, was added to columns 11, 12, 23, 24, rows I—P for the minimum signal control. A cocktail (40 ul) containing the CARM1 enzyme was added by Multidrop Combi (Thermo-Fisher). The compounds were allowed to incubate with CARM1 for 30 min at room temperature, then a cocktail (10 ul) containing ^3H-SAM and peptide was added to initiate the reaction (final volume=51 ul). The final concentrations of the components were as follows: CARM1 was 0.25 nM, ^3H-SAM was 30 nM, peptide was 250 nM, SAH in the minimum signal control wells was 1 mM, and the DMSO concentration was 2%. The assays were stopped by the addition of non-radiolabeled SAM (10 ul) to a final concentration of 300 uM, which dilutes the ^3H-SAM to a level where its incorporation into the peptide substrate is no longer detectable. 50 ul of the reaction in the 384-well polypropylene plate was then transferred to a 384-well Flashplate and the biotinylated peptides were allowed to bind to the streptavidin surface for at least 1 hour before being washed once with 0.1% Tween20 in a Biotek ELx405 plate washer. The plates were then read in a PerkinElmer TopCount plate reader to measure the quantity of ^3H-labeled peptide bound to the Flashplate surface, measured as disintegrations per minute (dpm) or alternatively, referred to as counts per minute (cpm).
where dpm=disintegrations per minute, cmpd=signal in assay well, and min and max are the respective minimum and maximum signal controls. […]

[1] = tested on: asymmetric di-methyl PABP1 in RKO cells; assay: RKO methylation assay (In Cell Western for asymmetric di-methyl PABP1); assay type: cell-based; conditions: Homo sapiens, 48 hours incubation, read-out: Cellular IC50
From the text: RKO adherent cells were purchased from ATCC (American Type Culture Collection), Manassas, Va., USA. DMEM/Glutamax medium, penicillin-streptomycin, heat inactivated fetal bovine serum, 0.05% trypsin and D-PBS were purchased from Life Technologies, Grand Island, N.Y., USA. Odyssey blocking buffer, 800CW goat anti-rabbit IgG (H+L) antibody, and Licor Odyssey infrared scanner were purchased from Licor Biosciences, Lincoln, Nebr., USA. Asymmetric di-methyl PABP1 antibody was purchased from Cell Signaling Technology, Danvers, Mass., USA. Methanol was purchased from VWR, Franklin, Mass., USA. 10% Tween 20 was purchased from KPL, Inc., Gaithersburg, Md., USA. Paraformaldehyde (PFA) was purchased from EM Sciences. DRAQ5 was purchased from Biostatus Limited, Leicestershire, UK.
RKO adherent cells were maintained in growth medium (DMEM/Glutamax medium supplemented with 10% v/v heat inactivated fetal bovine serum and 100 units/mL penicillin-streptomycin) and cultured at 37° C. under 5% CO2.
Compound (100 nL) from a 96-well source plate was added directly to 384 well cell plate. Plates were incubated at 37° C., 5% CO2 for 48 hours. After two days of incubation, plates were brought to room temperature outside of the incubator for ten minutes and blotted on paper towels to remove cell media. Cells were fixed for 20 minutes at room temperature by adding 50 ul of 8% PFA followed by aspiration of supernatant with the Biotek EL406 plate washer. Cells were then permeabilized by addition of 50 μL of ice cold 100% methanol directly to each well and incubated for 30 min at room temperature. After 30 min, plates were transferred to a Biotek EL406 plate washer and washed 2 times with 100 μL per well of wash buffer (IX PBS). Next 60 μL per well of Odyssey blocking buffer (Odyssey Buffer with 0.1% Tween 20 (v/v)) were added to each plate and incubated 1 hour at room temperature. Blocking buffer was removed and 20 μL per well of primary antibody was added (asymmetric-methyl PABP1) diluted 1:400 in Odyssey buffer with 0.1% Tween 20 (v/v)) and plates were incubated overnight (16 hours) at 4° C. Plates were washed 5 times with 100 μL per well of wash buffer. Next 20 μL per well of secondary antibody was added (1:800 800CW goat anti-rabbit IgG (H+L) antibody, 1:2000 DRAQ5 in Odyssey buffer with 0.1% Tween 20 (v/v)) and incubated for 1 hour at room temperature. The plates were washed 5 times with 100 μL per well wash buffer then 2 times with 100 μL per well of water. Plates were allowed to dry at room temperature then imaged on the Licor Odyssey machine which measures integrated intensity at 700 nm and 800 nm wavelengths. Both 700 and 800 channels were scanned.
First, the ratio for each well was determined by:
Each plate included fourteen control wells of DMSO only treatment (minimum inhibition) as well as fourteen control wells for maximum inhibition treated with 20 μM of a reference compound. The average of the ratio values for each control type was calculated and used to determine the percent […] for each test well in the plate. Reference compound was serially diluted three-fold in DMSO for a total of nine test concentrations, beginning at 20 μM.
Percent inhibition was determined and IC50 curves were generated using triplicate wells per concentration of compound.

T1 sequence (Q86X55 other isoform, or with tags, fused parts or gaps): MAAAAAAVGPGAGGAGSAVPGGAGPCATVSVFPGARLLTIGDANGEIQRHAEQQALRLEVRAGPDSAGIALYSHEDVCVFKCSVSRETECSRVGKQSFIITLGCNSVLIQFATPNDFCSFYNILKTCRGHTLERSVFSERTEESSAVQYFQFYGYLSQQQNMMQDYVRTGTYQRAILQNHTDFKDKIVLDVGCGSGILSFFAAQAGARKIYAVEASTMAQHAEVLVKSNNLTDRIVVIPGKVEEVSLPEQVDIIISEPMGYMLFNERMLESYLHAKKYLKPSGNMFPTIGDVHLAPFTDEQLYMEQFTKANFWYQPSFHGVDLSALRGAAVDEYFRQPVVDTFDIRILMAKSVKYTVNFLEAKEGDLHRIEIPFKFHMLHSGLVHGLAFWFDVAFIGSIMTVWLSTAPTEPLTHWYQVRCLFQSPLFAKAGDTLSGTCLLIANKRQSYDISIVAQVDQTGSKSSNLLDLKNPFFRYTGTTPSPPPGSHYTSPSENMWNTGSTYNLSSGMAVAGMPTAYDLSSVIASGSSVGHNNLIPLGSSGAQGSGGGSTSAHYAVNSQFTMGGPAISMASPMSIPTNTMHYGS

Compound	IC50 (Human CARM1 (PRMT4)) [µM]	IC50 [1] [µM]
CNCC(O)COc1cc(OC)cc(-c2cc(N3CCC(O)CC3)n3ncc(C(C)C)c3n2)c1 (stereo not drawn) [Example 37-6]	0.1 to 1	> 20
CC(C)n1ncc2c(N3CCOCC3)cc(-c3cc(OC[C@H](O)CN)cc(OC[C@H](O)CN)c3)nc21 [Example 25-9]	0.1 to 1	> 20
CNCC(O)COc1cc(OC)cc(-c2cc(N3CCOCC3)n3ncc(C(C)C)c3n2)c1 (stereo not drawn) [Example 22-6]	< 0.1	> 20
CNCC(O)COc1cc(OC)cc(-c2cc(-c3cnc4[nH]ccc4c3)nc3c(C(C)C)cnn23)c1 (stereo not drawn) [Example 1-7]	< 0.1	> 20
CNCC(O)COc1cccc(-c2nc(NCc3cnn(C)c3)c3cnn(C(C)(C)C)c3n2)c1 (stereo not drawn) [Example 8-8]	< 0.1	> 20
Cc1cccn2cc(CNc3nc(-c4cccc(OCC(O)CN)c4)nc4c3cnn4C3CC3)nc12 (stereo not drawn) [Example 41-5]	0.1 to 1	> 20
CNCC(O)COc1cccc(-c2nc(NCc3ccc[n+]([O-])c3)c3cnn(C4CC4)c3n2)c1 (stereo not drawn) [Example 32-5]	0.1 to 1	> 20
CNCC(O)COc1cccc(-c2cc(N[C@@H]3CCOC3)n3ncc(C(C)C)c3n2)c1 (stereo partly drawn) [Example 11-6]	< 0.1	> 20
Cc1cc(CNc2nc(-c3cccc(OCC(O)CN)c3)nc3c2cnn3C2CC2)n(C)n1 (stereo not drawn) [Example 24-5]	< 0.1	> 20
CNCC(O)COc1cc(OC)cc(-c2cc(N(C)C3CCOCC3)n3ncc(C(C)C)c3n2)c1 (stereo not drawn) [Example 2-6]	< 0.1	5 to 10
CNCC(O)COc1cc(-c2cc(N3CCOCC3)n3ncc(C(C)C)c3n2)cc(C2CC2)c1 (stereo not drawn) [Example 3-6]	< 0.1	> 20
CNCC(O)COc1cccc(-c2nc(NCc3ccn(C)n3)c3cnn(C4CC4)c3n2)c1 (stereo not drawn) [Example 25-5]	0.1 to 1	> 20
CNCC(O)COc1cc(NC)cc(-c2cc(NC3CCOCC3)c3cnn(C(C)C)c3n2)c1 (stereo not drawn) [Example 13-4]	< 0.1	10 to 20
CNCC(O)COc1cccc(-c2nc(N3[C@@H]4CC[C@H]3COC4)c3cnn(C4CC4)c3n2)c1 (stereo partly drawn) [Example 5-5]	0.1 to 1	> 20
CNCC(O)COc1cc(C#N)cc(-c2cc(N3CCOCC3)n3ncc(C(C)C)c3n2)c1 (stereo not drawn) [Example 26-9]	0.1 to 1	> 20
CNCC(O)COc1cc(OC)cc(-c2cc(-c3cnc4[nH]ccc4c3)n3ncc(C(C)C)c3n2)c1 (stereo not drawn) [Example 1-6]	< 0.1	> 20
CC(C)c1cnn2c(N3CCOCC3)cc(-c3cccc(OC[C@@H](O)CN)c3)nc12 [Example 9-8]	< 0.1	> 20

Compound	IC50 (Human CARM1 (PRMT4)) [µM]	IC50 [1] [µM]
CNCC(O)COc1cc(OC)cc(-c2cc(N3CC(CO)(CCl)C3)n3ncc(C(C)C)c3n2)c1 (stereo not drawn) [Example 52-6]	< 0.1	> 20
CNCC(O)COc1cccc(-c2nc(NCc3ccccn3)c3cnn(C4CC4)c3n2)c1 (stereo not drawn) [Example 22-5]	0.1 to 1	> 20
CNCC(O)COc1cc(Cl)cc(-c2cc(N3CC4(CCOCC4)C3)n3ncc(C(C)C)c3n2)c1 (stereo not drawn) [Example 50-6]	< 0.1	> 20
CNCC(O)COc1cccc(-c2nc(NCc3c(C)cc(C)[nH]c3=O)c3cnn(C4CC4)c3n2)c1 (stereo not drawn) [Example 42-5]	0.1 to 1	> 20
CNCC(O)COc1cc(Cl)cc(-c2cc(N3C[C@H]4CC[C@@H](C3)O4)n3ncc(C(C)C)c3n2)c1 (stereo partly drawn) [Example 12-9]	0.1 to 1	> 20
CNCC(O)COc1cccc(-c2nc(N3CC4CCC(C3)O4)c3cnn(C4CC4)c3n2)c1 (stereo not drawn) [Example 7-9]	< 0.1	10 to 20
CNC[C@@H](O)COc1cccc(-c2cc(N3CCOCC3)n3ncc(C(C)C)c3n2)c1 [Example 8-6]	< 0.1	> 20
C#Cc1cc(OCC(O)CNC)cc(-c2cc(N3CCOCC3)n3ncc(C(C)C)c3n2)c1 (stereo not drawn) [Example 15-6]	< 0.1	> 20
CNCC(O)COc1cc(N)cc(-c2cc(NC3CCOCC3)c3cnn(C(C)C)c3n2)c1 (stereo not drawn) [Example 7-4]	< 0.1	> 20
CNCC(O)COc1cc(OC)cc(-c2cc(N(C)CCOC)n3ncc(C(C)C)c3n2)c1 (stereo not drawn) [Example 25-6]	< 0.1	> 20
CNCC(O)COc1cccc(-c2cc(NC3CCOCC3)c3c(C)nn(C(C)C)c3n2)c1 (stereo not drawn) [Example 4-2]	< 0.1	10 to 20
CNCC(O)COc1cc(OC)cc(-c2cc(N3CCOCC3)c3cnn(C(C)C)c3n2)c1 (stereo not drawn) [Example 8-4]	< 0.1	10 to 20
NCC(O)COc1cccc(-c2nc(N3CC4CCC(C3)O4)c3cnn(C4CC4)c3n2)c1 (stereo not drawn) [Example 16-5]	< 0.1	> 20
CNCC(O)COc1cc(OC)cc(-c2cc(N(C)C3CCOCC3)n3ncc(C4CC4)c3n2)c1 (stereo not drawn) [Example 44-6]	< 0.1	–
CNCC(O)COc1cccc(-c2cc(N(C)C3CCOCC3)n3ncc(C(C)(C)C)c3n2)c1 (stereo not drawn) [Example 16-8]	< 0.1	–
CNCC(O)COc1cccc(-c2cc(N(C)[C@H]3CCOC3)n3ncc(C(C)C)c3n2)c1 (stereo partly drawn) [Example 14-6]	< 0.1	–
